Results taken from US11919900B1 (priority 2023, dated 2024).
Converted amounts (≈) assume the structure as drawn.

Tested on: Mycobacterium tuberculosis H37Rv (ATCC: 25177)
Assay: Resazurin Microplate Assay (REMA), antitubercular activity, H37Rv
Type: cell-based
Conditions: Middlebrook 7H9 broth, 8 days at 37° C. then resazurin overnight

| Molecule | Antitubercular activity against Mycobacterium tuberculosis H37Rv (MIC) [µg/mL] |
| --- | --- |
| Ethyl 4-bromo-1-(2-nitrobenzoyl)pyrrolo[1,2-a]quinoline-3-carboxylate [QUIN-KNV12] | 1 |

Same assay, conditions: Mycobacterium tuberculosis, 192 h, Middlebrook 7H9 broth, 8 days at 37° C. then resazurin overnight, read-out: Antitubercular activity against Mycobacterium tuberculosis H37Rv (MIC)

| Molecule | MIC [µg/mL] |
| --- | --- |
| COC(=O)c1c(C(=O)OC)c2c(Br)cc3ccccc3n2c1C(=O)c1ccc(OC)cc1 [QUIN-KNV1, Dimethyl 4-bromo-1-(4-methoxybenzoyl)pyrrolo[1,2-a]quinoline-2,3-dicarboxylate] | 0.5 (≈ 1.01 µM) |
| CCOC(=O)c1cc(C(=O)c2ccc(OC)cc2)n2c1c(Br)cc1ccccc12 [QUIN-KNV2, Ethyl 4-bromo-1-(4-methoxybenzoyl)pyrrolo[1,2-a]quinoline-3-carboxylate] | 1 (≈ 2.21 µM) |
| COC(=O)c1c(C(=O)OC)c2c(Br)cc3ccccc3n2c1C(=O)c1ccc(Cl)cc1 [QUIN-KNV3, Dimethyl 4-bromo-1-(4-chlorobenzoyl)pyrrolo[1,2-a]quinoline-2,3-dicarboxylate] | 1 (≈ 2 µM) |
| CCOC(=O)c1cc(C(=O)c2ccc(Cl)cc2)n2c1c(Br)cc1ccccc12 [QUIN-KNV4, Ethyl 4-bromo-1-(4-chlorobenzoyl)pyrrolo[1,2-a]quinoline-3-carboxylate] | 8 (≈ 17.5 µM) |
| COC(=O)c1c(C(=O)OC)c2c(Br)cc3ccccc3n2c1C(=O)c1ccc(Br)cc1 [QUIN-KNV5, Dimethyl 4-bromo-1-(4-bromobenzoyl)pyrrolo[1,2-a]quinoline-2,3-dicarboxylate] | 0.5 (≈ 0.917 µM) |
| CCOC(=O)c1cc(C(=O)c2ccc(Br)cc2)n2c1c(Br)cc1ccccc12 [QUIN-KNV6, Ethyl 4-bromo-1-(4-bromobenzoyl)pyrrolo[1,2-a]quinoline-3-carboxylate] | 2 (≈ 3.99 µM) |
| COC(=O)c1c(C(=O)OC)c2c(Br)cc3ccccc3n2c1C(=O)c1ccc(F)cc1 [QUIN-KNV7, Dimethyl 4-bromo-1-(4-fluorobenzoyl)pyrrolo[1,2-a]quinoline-2,3-dicarboxylate] | 16 (≈ 33 µM) |
| CCOC(=O)c1cc(C(=O)c2ccc(F)cc2)n2c1c(Br)cc1ccccc12 [QUIN-KNV8, Ethyl 4-bromo-1-(4-fluorobenzoyl)pyrrolo[1,2-a]quinoline-3-carboxylate] | 1 (≈ 2.27 µM) |
| COC(=O)c1c(C(=O)OC)c2c(Br)cc3ccccc3n2c1C(=O)c1ccc(C#N)cc1 [QUIN-KNV9, Dimethyl 4-bromo-1-(4-cyanobenzoyl)pyrrolo[1,2-a]quinoline-2,3-dicarboxylate] | 8 (≈ 16.3 µM) |
| CCOC(=O)c1cc(C(=O)c2ccc(C#N)cc2)n2c1c(Br)cc1ccccc12 [QUIN-KNV10, Ethyl 4-bromo-1-(4-cyanobenzoyl)pyrrolo[1,2-a]quinoline-3-carboxylate] | 8 (≈ 17.9 µM) |
| COC(=O)c1c(C(=O)OC)c2c(Br)cc3ccccc3n2c1C(=O)c1ccccc1 [QUIN-KNV11, Dimethyl 1-benzoyl-4-bromopyrrolo[1,2-a]quinoline-2,3-dicarboxylate] | 32 (≈ 68.6 µM) |
